Patent publication US20200024278A1, “COMPOSITION COMPRISING ANTIBIOTIC COMPOUND AND AN HETEROCYCLIC COMPOUND AND THEIR USE IN PREVENTING OR TREATING BACTERIAL INFECTIONS” (MUTABILIS, priority 2016, published 2020)

What was measured:
Test in all cases: MIC, broth microdilution (CLSI), substance alone or ATB combined with compound at 4 or 8 μg/mL
ECO 190317 = type: cell-based, E. coli; details: ECO 190317
Method in brief: (§1)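 CLSI M7-A7 broth microdilution. ca-MHB, 5·10^5 CFU/mL log-phase cells, 16-20 h, 35° C, ambient air. Fosfomycin wells + 25 μg/ml glucose-6-phosphate. Visual MIC read.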

ECO UFR39 = type: cell-based, E. coli; details: ECO UFR39; for MIC ATB combined with Example compound: compound @4 μg/ml
Method in brief: as §1

KPN 6299 = type: cell-based, K. pneumoniae; details: MIC of CIP, compound @4 μg/ml
Method in brief: as §1

KPN BAA-1898 = type: cell-based, K. pneumoniae; details: KPN BAA-1898
Method in brief: as §1

KPN UFR42 = type: cell-based, K. pneumoniae; details: KPN UFR42; for MIC ATB combined with Example compound: compound @4 μg/ml
Method in brief: as §1

ECL P99 = type: cell-based, E. cloacae; details: ECL P99
Method in brief: as §1

PAE 105250 = type: cell-based, P. aeruginosa; details: PAE 105250; for MIC ATB combined with compound / MIC ATB combined with Example compound: compound @4 μg/ml
Method in brief: as §1

PAE UFR48 = type: cell-based, P. aeruginosa; details: PAE UFR48; for MIC ATB combined with compound / MIC ATB combined with Example compound: compound @4 μg/ml
Method in brief: as §1

PAE UFR90 = type: cell-based, P. aeruginosa; details: PAE UFR90; for MIC ATB combined with compound / MIC ATB combined with Example compound: compound @4 μg/ml
Method in brief: as §1

SAU 29213 = type: cell-based, S. aureus; details: for MIC ATB combined with compound / MIC ATB combined with Example compound: compound @4 μg/ml, SAU 29213
Method in brief: as §1

SPN 49619 = type: cell-based, S. pneumoniae; details: SPN 49619; for MIC ATB combined with compound / MIC ATB combined with Example compound: compound @4 μg/ml
Method in brief: as §1

ABA 19606 = type: cell-based, A. baumannii; details: Acinetobacter baumannii, substance alone, read-out: MIC
Method in brief: as §1

ABA UFR159 = type: cell-based, A. baumannii; details: Acinetobacter baumannii, substance alone, read-out: MIC
Method in brief: as §1

[1] = Escherichia coli, substance alone, read-out: MIC
[2] = Pseudomonas aeruginosa, substance alone, read-out: MIC

O=C1N2CC(c3ncco3)=C[C@H](C2)N1OS(=O)(=O)[O-].[Na+] [Example 9, sodium [(5R)-3-(oxazol-2-yl)-7-oxo-1,6-diazabicyclo[3.2.1]oct-3-en-6-yl] sulfate]
MIC (ECO 190317; [1]): 0.5 µg/mL | MIC ATB combined with Example compound (ECO 190317; MIC of CIP, compound @4 μg/ml): <0.031 µg/mL | MIC (ECO UFR39; [1]): 2 µg/mL | MIC ATB combined with Example compound (ECO UFR39; MIC of CIP): <0.031 µg/mL | MIC ATB combined with Example compound (ECO UFR39; MIC of CPO): <0.031 µg/mL | MIC ATB combined with Example compound (KPN 6299): <=0.031 μg/mL | MIC (KPN BAA-1898; Klebsiella pneumoniae, BAA1898, substance alone, read-out: MIC): 2 µg/mL | MIC ATB combined with Example compound (KPN BAA-1898; MIC of CIP, compound @4 μg/ml): <0.031 µg/mL | MIC (KPN UFR42; Klebsiella pneumoniae, substance alone, read-out: MIC): 8 µg/mL | MIC ATB combined with Example compound (KPN UFR42; MIC of CIP): <0.031 µg/mL | MIC ATB combined with Example compound (KPN UFR42; MIC of CPO): <0.031 µg/mL | MIC (ECL P99; Enterobacter cloacae, substance alone, read-out: MIC): 2 µg/mL | MIC ATB combined with Example compound (ECL P99; MIC of CIP, compound @4 μg/ml): <0.031 µg/mL | MIC ATB combined with compound (PAE 105250; ATB ATM): 8 µg/mL | MIC ATB combined with compound (PAE 105250; ATB FEP): 8 µg/mL | MIC ATB combined with compound (PAE 105250; ATB FOS): >128 µg/mL | MIC ATB combined with compound (PAE 105250; ATB MEM): 4 µg/mL | MIC ATB combined with compound (PAE 105250; ATB PIP): 32 µg/mL | MIC ATB combined with Example compound (PAE 105250; MIC of CIP): 0.125 µg/mL | MIC ATB combined with Example compound (PAE 105250; MIC of CPO): 32 µg/mL | MIC (PAE 105250; [2]): > 32 µg/mL | MIC ATB combined with compound (PAE UFR48; ATB ATM): 128 µg/mL | MIC ATB combined with compound (PAE UFR48; ATB FEP): 32 µg/mL | MIC ATB combined with compound (PAE UFR48; ATB FOS): 32 µg/mL | MIC ATB combined with compound (PAE UFR48; ATB MEM): 2 µg/mL | MIC ATB combined with compound (PAE UFR48; ATB PIP): 32 µg/mL | MIC ATB combined with Example compound (PAE UFR48; MIC of CIP): 4 µg/mL | MIC ATB combined with Example compound (PAE UFR48; MIC of CPO): >32 µg/mL | MIC (PAE UFR48; [2]): 128 µg/mL | MIC ATB combined with compound (PAE UFR90; ATB ATM): 128 µg/mL | MIC ATB combined with compound (PAE UFR90; ATB FEP): 4 µg/mL | MIC ATB combined with compound (PAE UFR90; ATB FOS): 4 µg/mL | MIC ATB combined with compound (PAE UFR90; ATB MEM): 1 µg/mL | MIC ATB combined with compound (PAE UFR90; ATB PIP): 16 µg/mL | MIC ATB combined with Example compound (PAE UFR90; MIC of CIP): 1 µg/mL | MIC ATB combined with Example compound (PAE UFR90; MIC of CPO): 8 µg/mL | MIC (PAE UFR90; [2]): > 128 µg/mL | MIC ATB combined with compound (SAU 29213; ATB ATM): <=0.031 μg/mL | MIC ATB combined with compound (SAU 29213; ATB FEP): <0.031 µg/mL | MIC ATB combined with compound (SAU 29213; ATB FOS): <0.125 µg/mL | MIC ATB combined with compound (SAU 29213; ATB MEM): <0.031 µg/mL | MIC ATB combined with compound (SAU 29213; ATB PIP): <0.031 µg/mL | MIC ATB combined with Example compound (SAU 29213; MIC of CIP): <0.031 µg/mL | MIC ATB combined with Example compound (SAU 29213; MIC of CLI): <0.0010 µg/mL | MIC ATB combined with Example compound (SAU 29213; MIC of CPO): <0.031 µg/mL | MIC ATB combined with Example compound (SAU 29213; MIC of DAP): <0.0020 µg/mL | MIC ATB combined with Example compound (SAU 29213; MIC of ERY): <=0.0020 μg/mL | MIC ATB combined with Example compound (SAU 29213; MIC of LZD): <0.0078 µg/mL | MIC ATB combined with Example compound (SAU 29213; MIC of RIF): 0.002 µg/mL | MIC ATB combined with Example compound (SAU 29213; MIC of SYN): 0.0039 µg/mL | MIC ATB combined with Example compound (SAU 29213; MIC of VAN): <0.0039 µg/mL | MIC (SAU 29213; Staphylococcus aureus, substance alone, SAU 29213 (MSSA 29213), read-out: MIC): 8 µg/mL | MIC ATB combined with compound (SPN 49619; ATB ATM): <0.031 µg/mL | MIC ATB combined with compound (SPN 49619; ATB FEP): <=0.031 μg/mL | MIC ATB combined with compound (SPN 49619; ATB FOS): 4 µg/mL | MIC ATB combined with compound (SPN 49619; ATB MEM): <=0.031 μg/mL | MIC ATB combined with compound (SPN 49619; ATB PIP): <0.031 µg/mL | MIC ATB combined with Example compound (SPN 49619; MIC of CIP): 0.25 µg/mL | MIC ATB combined with Example compound (SPN 49619; MIC of CLI): 0.0039 µg/mL | MIC ATB combined with Example compound (SPN 49619; MIC of CPO): <=0.031 μg/mL | MIC ATB combined with Example compound (SPN 49619; MIC of DAP): <0.0020 µg/mL | MIC ATB combined with Example compound (SPN 49619; MIC of ERY): <0.0020 µg/mL | MIC ATB combined with Example compound (SPN 49619; MIC of LZD): <=0.0078 μg/mL | MIC ATB combined with Example compound (SPN 49619; MIC of RIF): 0.00024 µg/mL | MIC ATB combined with Example compound (SPN 49619; MIC of SYN): <=0.0020 μg/mL | MIC ATB combined with Example compound (SPN 49619; MIC of VAN): <0.0039 µg/mL | MIC (SPN 49619; Streptococcus pneumoniae, substance alone, read-out: MIC): 8 µg/mL | MIC (ABA 19606): > 32 µg/mL | MIC (ABA UFR159): > 32 µg/mL
